Data reported in publication PMC10763615, “Identification and engineering of potent cyclic peptides with selective or promiscuous binding through biochemical profiling and bioinformatic data analysis” (RSC Chemical Biology, 2023).
Where two headings read alike, the source gives them in different places.

Experiments:
FGF-R1C ECD [1] = target: T1, FGF-R1C ECD (Homo sapiens, UniProt P11362); experiment: biochemical
T1 sequence (P11362 22-376 limits assumed): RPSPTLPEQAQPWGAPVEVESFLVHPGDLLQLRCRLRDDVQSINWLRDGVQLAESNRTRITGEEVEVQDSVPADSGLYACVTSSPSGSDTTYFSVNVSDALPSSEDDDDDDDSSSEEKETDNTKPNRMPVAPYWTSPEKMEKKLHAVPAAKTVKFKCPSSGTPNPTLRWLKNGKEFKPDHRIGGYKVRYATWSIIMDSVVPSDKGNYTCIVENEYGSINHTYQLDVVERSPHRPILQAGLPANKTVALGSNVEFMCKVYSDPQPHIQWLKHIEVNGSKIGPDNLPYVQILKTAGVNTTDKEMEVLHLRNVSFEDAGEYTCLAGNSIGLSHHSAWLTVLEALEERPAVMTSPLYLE
How it was run: (§1)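 Biolayer interferometry with biotinylated FGF-R ECD on streptavidin biosensors in PBS pH 7.4, 0.05% Tween-20, 0.01% BSA. Multi-concentration: purified peptide dilution series fitted to a multi-point KD model.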

FGF-R3C ECD [2] = target: T2, FGF-R3C ECD (Homo sapiens, UniProt P22607); experiment: biochemical
T2 sequence (P22607 23-375 limits assumed): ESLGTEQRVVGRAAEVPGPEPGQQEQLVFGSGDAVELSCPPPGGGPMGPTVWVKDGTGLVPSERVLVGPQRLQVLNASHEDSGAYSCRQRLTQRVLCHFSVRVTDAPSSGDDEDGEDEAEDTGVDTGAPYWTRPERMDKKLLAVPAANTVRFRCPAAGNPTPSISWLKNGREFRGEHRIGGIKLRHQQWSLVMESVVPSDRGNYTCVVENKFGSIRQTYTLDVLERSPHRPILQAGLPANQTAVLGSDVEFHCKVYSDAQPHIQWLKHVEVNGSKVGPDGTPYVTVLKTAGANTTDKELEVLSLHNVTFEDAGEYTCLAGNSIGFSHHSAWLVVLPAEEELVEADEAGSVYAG
How it was run: as §1

FGF-R4 ECD [3] = target: T3, FGF-R4 ECD (Homo sapiens, UniProt P22455); experiment: multi-concentration BLI of purified peptides; assay type: binding; conditions: purified NNK library peptides
T3 construct: DNA constructs for the extracellular domain (ECD) of human FGF-; HPC4 (C); made in house; host or cells: HEK 293-6E
T3 sequence (P22455 22-369 limits assumed): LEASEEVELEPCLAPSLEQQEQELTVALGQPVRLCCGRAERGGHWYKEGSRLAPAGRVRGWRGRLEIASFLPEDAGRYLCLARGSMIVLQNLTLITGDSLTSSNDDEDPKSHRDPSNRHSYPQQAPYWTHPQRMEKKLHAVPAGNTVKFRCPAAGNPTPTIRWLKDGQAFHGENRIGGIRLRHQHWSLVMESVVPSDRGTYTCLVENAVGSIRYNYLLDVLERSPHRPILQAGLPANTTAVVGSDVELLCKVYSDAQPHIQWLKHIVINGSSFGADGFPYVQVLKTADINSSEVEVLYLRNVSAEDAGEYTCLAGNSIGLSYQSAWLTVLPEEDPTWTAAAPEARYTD
How it was run: as §1

FGF-R4 ECD [4] = target: T3, FGF-R4 ECD; experiment: single concentration BLI of crude peptides; assay type: binding; conditions: crude NNK peptides, single concentration BLI (Table S3); read-out: KD (4)
How it was run: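 BLI, streptavidin sensors loaded with biotinylated receptor ECD. Single-point: ~1 μM crude peptide, PBS pH7.4/0.05% Tween-20/0.01% BSA; association then dissociation in buffer. KD corrected for UPLC-CAD-determined concentration.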

[5] = target: T4, FGFR1c/KLB (Fc-fused human FGF-R1alpha(IIIc) with beta-klotho) (Homo sapiens, UniProt P11362); experiment: AlphaScreen FGF21 competitive binding assay
T4 sequence (P11362 22-376 limits assumed): T1 sequence (P11362 22-376 limits assumed)
Protocol: Alphascreen binding assay
(§2) The competitive binding assay was carried out according to the methods detailed in Hansen. et al using
(§3) AlphaScreen.3 All reagents and samples were prepared in assay buffer: 40mM Hepes, 140mM NaCl, 1mM
(§4) CaCl2, 0,05% Tween20, pH=7.5, 0.1% BSA. In brief, recombinant human beta-klotho (R&D Systems) was
(§5) preincubated for 60 min with the ectodomain, either Fc-fused human FGF-R1alpha(IIIc), FGF-R3alpha(IIIc)
(§6) or FGF-R4 (R&D Systems), and the mixture was added to the test peptides in OptiPlate™ (PerkinElmer).
(§7) Biotinylated FGF21 and heparin were further added to each well. AlphaScreen bead mix (1:1 mix of Protein
(§8) A acceptor beads/ streptavidin-coated donor beads, PerkinElmer) were added to each well incubated
(§9) overnight at RT in the dark, and measured on a plate reader (Envision). Assays were carried out in triplicates
(§10) with concentrations ranging from 3, 10, 30, 100, 300 ,1000 and 3000 nM of peptide. No peptide control
(§11) (media only) was used as a negative control, and unlabeled FGF21 and FGF1 as positive control.
(§12) competing with biotinylated natural FGF21 ligand.

[6] = target: T5, FGFR3c/BKL (Fc-fused human FGF-R3alpha(IIIc) with beta-klotho) (Homo sapiens, UniProt P22607); experiment: AlphaScreen FGF21 competitive binding assay
T5 sequence (P22607 23-375 limits assumed): T2 sequence (P22607 23-375 limits assumed)
Protocol: Alphascreen binding assay
as §2, §3, §4, §5, §6, §7, §8, §9, §10, §11, §12

[7] = target: T6, FGFR4/KLB (Fc-fused human FGF-R4 with beta-klotho) (Homo sapiens, UniProt P22455); experiment: AlphaScreen FGF21 competitive binding assay
T6 sequence (P22455 22-369 limits assumed): T3 sequence (P22455 22-369 limits assumed)
Protocol: Alphascreen binding assay
as §2, §3, §4, §5, §6, §7, §8, §9, §10, §11, §12

FGF-R1C ECD [8] = target: T1, FGF-R1C ECD; experiment: biochemical; assay type: binding; set-up: DNA constructs for the extracellular domain (ECD) of human FGF-; HPC4 (C); made in house; host or cells: HEK 293-6E
How it was run: as §1

FGF-R3C ECD [9] = target: T2, FGF-R3C ECD; experiment: biochemical; assay type: binding; set-up: DNA constructs for the extracellular domain (ECD) of human FGF-; HPC4 (C); made in house; host or cells: HEK 293-6E
How it was run: as §1

[10] = purified NNK library peptides, multi-concentration BLI

| SMILES | Kd (FGF-R1C ECD [1]) [nM] | Kd (FGF-R3C ECD [2]) [nM] | Kd (FGF-R4 ECD [3]) [nM] | Kd (FGF-R4 ECD [4]) [µM] | IC50 [5] [nM] | IC50 [6] [nM] | IC50 [7] [nM] | Kd (FGF-R1C ECD [8]) [µM] | Kd (FGF-R3C ECD [9]) [nM] | R3C KD (nM) (FGF-R3C ECD [2]; [10]) | Kd (FGF-R1C ECD [1]; read-out: R1C KD, purified NNK library peptides, multi-concentration BLI) [nM] | Kd (FGF-R3C ECD [2]; read-out: R3C KD, purified NNK library peptides, multi-concentration BLI) [nM] | IC50 ([5]; read-out: R1C competitive IC50, purified peptides, Alphascreen vs biotinylated FGF21) [nM] | IC50 ([6]; read-out: R3C competitive IC50, purified peptides, Alphascreen vs biotinylated FGF21) [nM] | IC50 ([7]; read-out: R4 competitive IC50, purified peptides, Alphascreen vs biotinylated FGF21) [nM] | Kd (FGF-R1C ECD [8]; read-out: KD (1C)) [µM] | Kd (FGF-R3C ECD [9]; read-out: KD(3C)) [nM] | R3C competitive IC50 (nM) ([6]; purified peptides, Alphascreen vs biotinylated FGF21) |
| --- | --- | --- | --- | --- | --- | --- | --- | --- | --- | --- | --- | --- | --- | --- | --- | --- | --- | --- |
| CC[C@H](C)[C@@H]1NC(=O)[C@@H](NC(=O)[C@@H](N)CCSC)CSSC[C@@H](C(=O)NCC(=O)N[C@@H](CO)C(=O)NCC(=O)N[C@@H](CO)C(=O)N[C@@H](CC(=O)O)C(=O)N[C@@H](Cc2ccc(O)cc2)C(=O)N[C@@H](CCCCN)C(=O)N[C@@H](CC(=O)O)C(=O)N[C@@H](CC(=O)O)C(=O)N[C@@H](CC(=O)O)C(=O)N[C@@H](CC(=O)O)C(=O)N[C@@H](CCCCN)C(N)=O)NC(=O)[C@H](CC(C)C)NC(=O)[C@H](Cc2c[nH]c3ccccc23)NC(=O)[C@H](Cc2ccccc2)NC(=O)[C@H](CC(C)C)NC(=O)[C@@H]2CCCN2C(=O)[C@H](CCC(N)=O)NC(=O)[C@H](CCCNC(=N)N)NC(=O)[C@H](C)NC(=O)[C@@H]2CCCN2C(=O)[C@H](Cc2c[nH]c3ccccc23)NC(=O)[C@H](CCCNC(=N)N)NC1=O [1C.9] | 1 | 47 | 82 | 0.082 | 17 | 15 | 67 | 0.019 | 112 | – | – | – | – | – | – | – | – | – |
| CSCC[C@H](N)C(=O)N[C@H]1CSSC[C@@H](C(=O)NCC(=O)N[C@@H](CO)C(=O)NCC(=O)N[C@@H](CO)C(=O)N[C@@H](CC(=O)O)C(=O)N[C@@H](Cc2ccc(O)cc2)C(=O)N[C@@H](CCCCN)C(=O)N[C@@H](CC(=O)O)C(=O)N[C@@H](CC(=O)O)C(=O)N[C@@H](CC(=O)O)C(=O)N[C@@H](CC(=O)O)C(=O)N[C@@H](CCCCN)C(N)=O)NC(=O)[C@H](Cc2ccccc2)NC(=O)[C@@H]2CCCN2C(=O)[C@H]([C@@H](C)O)NC(=O)[C@H](CC(C)C)NC(=O)[C@H](Cc2c[nH]cn2)NC(=O)[C@H](Cc2c[nH]cn2)NC(=O)[C@H](Cc2ccccc2)NC(=O)[C@H](CC(C)C)NC(=O)[C@H](CCCNC(=N)N)NC(=O)[C@H](Cc2c[nH]c3ccccc23)NC(=O)[C@H](CCCNC(=N)N)NC(=O)[C@H](Cc2ccccc2)NC1=O [1C.10] | 101 | > 1000 | 73 | 0.079 | 84 | > 1000 | 283 | 0.05 | > 10000 | – | – | – | – | – | – | – | – | – |
| CC[C@H](C)[C@@H]1NC(=O)[C@@H](NC(=O)[C@H](CCSC)NC(C)=O)CSSC[C@@H](C(=O)NCC(=O)N[C@@H](CO)C(=O)NCC(=O)N[C@@H](CO)C(=O)N[C@@H](CC(=O)O)C(=O)N[C@@H](Cc2ccc(O)cc2)C(=O)N[C@@H](CCCCN)C(=O)N[C@@H](CC(=O)O)C(=O)N[C@@H](CC(=O)O)C(=O)N[C@@H](CC(=O)O)C(=O)N[C@@H](CC(=O)O)C(=O)N[C@@H](CCCCN)C(N)=O)NC(=O)[C@H](Cc2ccccc2)NC(=O)[C@H]([C@@H](C)CC)NC(=O)[C@H](Cc2ccccc2)NC(=O)[C@@H]2CCCN2C(=O)[C@H](CC(C)C)NC(=O)[C@H](Cc2ccccc2)NC(=O)[C@H](CC(C)C)NC(=O)[C@H](CC(=O)O)NC(=O)[C@H](Cc2ccccc2)NC1=O [3C.1] | > 1000 | 95 | > 1000 | > 10 | > 1000 | 204 | > 1000 | > 10 | 64 | – | – | – | – | – | – | – | – | – |
| CC[C@H](C)[C@@H]1NC(=O)[C@@H](NC(=O)[C@@H](N)CCSC)CSSC[C@@H](C(=O)NCC(=O)N[C@@H](CO)C(=O)NCC(=O)N[C@@H](CO)C(=O)N[C@@H](CC(=O)O)C(=O)N[C@@H](Cc2ccc(O)cc2)C(=O)N[C@@H](CCCCN)C(=O)N[C@@H](CC(=O)O)C(=O)N[C@@H](CC(=O)O)C(=O)N[C@@H](CC(=O)O)C(=O)N[C@@H](CC(=O)O)C(=O)N[C@@H](CCCCN)C(N)=O)NC(=O)[C@@H]2CCCN2C(=O)[C@H]([C@@H](C)CC)NC(=O)[C@H](Cc2ccccc2)NC(=O)[C@@H]2CCCN2C(=O)[C@H](CCSC)NC(=O)[C@H](Cc2c[nH]cn2)NC(=O)[C@H]([C@@H](C)CC)NC(=O)[C@H](CC(=O)O)NC(=O)[C@H](Cc2ccccc2)NC1=O [3C.2] | > 1000 | > 1000 | > 1000 | > 10 | > 1000 | > 1000 | > 1000 | > 10 | > 10000 | did not show any binding | – | – | – | – | – | – | – | – |
| CC[C@H](C)[C@@H]1NC(=O)[C@H](Cc2ccccc2)NC(=O)[C@@H]2CCCN2C(=O)[C@H](C(C)C)NC(=O)[C@H](Cc2ccccc2)NC(=O)[C@H](CO)NC(=O)[C@H](CC(=O)O)NC(=O)[C@H](Cc2ccccc2)NC(=O)[C@H](CC(C)C)NC(=O)[C@@H](NC(=O)[C@@H](N)CCSC)CSSC[C@@H](C(=O)NCC(=O)N[C@@H](CO)C(=O)NCC(=O)N[C@@H](CO)C(=O)N[C@@H](CC(=O)O)C(=O)N[C@@H](Cc2ccc(O)cc2)C(=O)N[C@@H](CCCCN)C(=O)N[C@@H](CC(=O)O)C(=O)N[C@@H](CC(=O)O)C(=O)N[C@@H](CC(=O)O)C(=O)N[C@@H](CC(=O)O)C(=O)N[C@@H](CCCCN)C(N)=O)NC(=O)[C@H](Cc2ccccc2)NC1=O [3C.3] | – | – | > 1000 | > 10 | – | – | – | – | – | – | > 1000 | 21 | > 1000 | 95 | > 1000 | > 10 | 29 | – |
| CSCC[C@H](NC(C)=O)C(=O)N[C@H]1CSSC[C@@H](C(=O)NCC(=O)N[C@@H](CO)C(=O)NCC(=O)N[C@@H](CO)C(=O)N[C@@H](CC(=O)O)C(=O)N[C@@H](Cc2ccc(O)cc2)C(=O)N[C@@H](CCCCN)C(=O)N[C@@H](CC(=O)O)C(=O)N[C@@H](CC(=O)O)C(=O)N[C@@H](CC(=O)O)C(=O)N[C@@H](CC(=O)O)C(=O)N[C@@H](CCCCN)C(N)=O)NC(=O)[C@H](CO)NC(=O)[C@H](Cc2c[nH]cn2)NC(=O)[C@H](Cc2c[nH]c3ccccc23)NC(=O)[C@H](Cc2c[nH]cn2)NC(=O)[C@H](CCCNC(=N)N)NC(=O)[C@H]([C@@H](C)O)NC(=O)[C@H](Cc2ccc(O)cc2)NC(=O)[C@H](CC(C)C)NC(=O)[C@H](CC(N)=O)NC(=O)[C@H](Cc2c[nH]c3ccccc23)NC(=O)[C@H](CCC(N)=O)NC(=O)[C@H](CCC(N)=O)NC1=O [3C.4] | > 1000 | > 1000 | > 1000 | > 10 | > 1000 | 71 | > 1000 | > 10 | > 10000 | could not detect any binding | – | – | – | – | – | – | – | efficiently competes with FGF21 |
